Converted amounts (≈) assume the structure as drawn.

The conditions of the data set: buffer; pH 7.4; 200.0 µM.
One may read the solubility (kinetic) as the concentration staying in solution when a stock, usually in DMSO, is diluted into the medium. `Cc1noc2ncnc(Oc3cc(Cl)ccc3Cl)c12` came in with a solubility (kinetic) below 0.2 µg/mL. To `COc1ccc(Cl)cc1NC(=O)COC(C)=O` belongs above 38.7 µg/mL; to `Clc1ccc(C2Nc3cccc4cccc(c34)N2)cc1`, 7.7 µg/mL (≈ 27.4 µM); to `CCCc1nc2cc3c(cc2[nH]1)n(C)c(=O)n3C.Cl`, above 42.1 µg/mL. `C=CCNC(=O)/C(=C\c1ccco1)NC(=O)c1ccco1` gave a kinetic solubility above 42.9 µg/mL. To `COC(=O)c1cccc(Nc2nc(-c3ccncc3)nc3ccccc23)c1` belongs below 0.2 µg/mL; to `Cc1ccccc1NC(=S)N1CCC(NC(=O)c2ccco2)CC1`, 47.1 µg/mL (≈ 137 µM); to `O=[N+]([O-])c1ccc(C2CCCC/C2=N/O)c([N+](=O)[O-])c1` (configuration not stated), 8.8 µg/mL (≈ 31.5 µM). The compound `Cc1ccc(Oc2ccccc2NC(=O)C2=COCCO2)cc1` registered a solubility (kinetic) of 15.8 µg/mL (≈ 50.7 µM). To `O=C(Nc1ccc(N2CCN(c3ccccc3)CC2)c(F)c1)C1CC1` belongs below 0.2 µg/mL; to `Cc1cc(/C=C(\C#N)C(=O)NCc2ccccc2)cc(C)c1O`, below 0.3 µg/mL.

As for `CNC(=O)Nc1cc(NC(=O)NC)cc(C(F)(F)F)c1`, the kinetic solubility is above 43.5 µg/mL. Under `Cc1nonc1OC(C)CNCCNc1ccc([N+](=O)[O-])cc1.Cl` (configuration not stated) stands above 53.7 µg/mL; under `COc1ccc(C2NC(=O)NC(C)=C2[N+](=O)[O-])cc1OC` (configuration not stated), above 44 µg/mL. Under `O=C(CSc1ccc(Cl)cc1)Nc1ccc(C2SCCS2)cc1` stands 1 µg/mL (≈ 2.62 µM). To `COc1ccccc1C(=O)Nc1nc2ccccc2s1` belongs below 0.3 µg/mL; to `CCn1c(C)cc(=O)cc1-c1ccc(Cl)cc1`, above 37.2 µg/mL; to `O=S(=O)(Nc1cccc(S(=O)(=O)N2CCCCCC2)c1)c1ccc(F)cc1F`, above 64.6 µg/mL. The compound `COc1ccc(-n2ccc3ccccc32)cc1` came in with a kinetic solubility below 0.5 µg/mL. `Clc1cccc(CN2CCN(c3ncccn3)CC2)c1Cl` showed a kinetic solubility of 11.1 µg/mL (≈ 34.3 µM).

`COc1cccc(C2(O)CCN(CC(=O)NCC3CC3)CC2)c1` had a solubility (kinetic) above 47.8 µg/mL. To `O=C(Nc1cc2c3c(c1)CC(=O)N3CCC2)c1ccc(Br)cc1` belongs 10.3 µg/mL (≈ 27.7 µM); to `Cc1ccc(NC(=O)C(=O)NCCCN2CCOCC2)c(C)c1`, above 47.9 µg/mL; to `S=C(NCc1ccccc1)NC1CCCCC1`, above 37.3 µg/mL. To `COc1cc(C(=S)N2CCCC2)ccc1OCC(N)=O` belongs above 44.2 µg/mL; to `Cc1ccccc1NC(=O)CSc1nc(O)cc(=O)n1C`, 35.6 µg/mL (≈ 117 µM); to `Cc1ccnc(NC(=O)c2ccco2)n1`, above 30.5 µg/mL. Under `N#Cc1c(F)cccc1N1CCN(Cc2ccc3c(c2)OCO3)CC1` stands 14.6 µg/mL (≈ 43 µM); under `O=C(CNS(=O)(=O)c1ccc(F)c(Cl)c1)NCCc1ccccc1`, 5.1 µg/mL (≈ 13.8 µM).

`O=C(c1ccccc1)c1ccc(C(=O)N2CCN(c3ccc(O)cc3)CC2)cc1` showed a kinetic solubility of 47.4 µg/mL (≈ 123 µM). Under `COc1ccccc1CNc1ccc2c(c1)CCC2` stands 7.4 µg/mL (≈ 29.2 µM); under `Nc1ncnc2nc(SCC(=O)Nc3ccccc3F)[nH]c12`, 29.8 µg/mL (≈ 93.6 µM). On to `Cc1ccccc1-c1nc(C#N)c(N2CCCCC2)o1`, for which the kinetic solubility is 1.8 µg/mL (≈ 6.73 µM). Under `COc1ccc(NC(=O)CSCc2ccc(C#N)cc2)c(OC)c1` stands above 51.4 µg/mL; under `N=C(N)c1ccccc1`, above 18 µg/mL; under `O=C(CC1CCC1)NC(c1ccccc1)c1ccccc1`, 6.5 µg/mL (≈ 23.3 µM). Under `C=CCOc1ccc(/C=C/C(=O)OCC(=O)N2CCN(C(C)=O)CC2)cc1` stands above 55.9 µg/mL; under `COC(=O)c1cn(Cc2ccc(C(F)(F)F)cc2)cc(F)c1=O`, above 49.4 µg/mL. As for `COc1cc(OC)cc(C(=O)NCCCn2ccnc2)c1`, the solubility (kinetic) was above 43.4 µg/mL. To `COc1ccc2[nH]c(C(=O)N3CCN(C)CC3)c(C)c2c1` belongs above 43.1 µg/mL; to `Cc1nc2c(C#N)cnn2c2c1CCN2CC1CCCO1` (configuration not stated), above 42.5 µg/mL.

`O=C(COC(=O)COc1ccccc1F)NCc1ccco1` displayed a solubility (kinetic) above 46.1 µg/mL.
